Target: T1, human TLR8 (Homo sapiens, UniProt Q9NR97)
T1 sequence (Q9NR97 27-1041): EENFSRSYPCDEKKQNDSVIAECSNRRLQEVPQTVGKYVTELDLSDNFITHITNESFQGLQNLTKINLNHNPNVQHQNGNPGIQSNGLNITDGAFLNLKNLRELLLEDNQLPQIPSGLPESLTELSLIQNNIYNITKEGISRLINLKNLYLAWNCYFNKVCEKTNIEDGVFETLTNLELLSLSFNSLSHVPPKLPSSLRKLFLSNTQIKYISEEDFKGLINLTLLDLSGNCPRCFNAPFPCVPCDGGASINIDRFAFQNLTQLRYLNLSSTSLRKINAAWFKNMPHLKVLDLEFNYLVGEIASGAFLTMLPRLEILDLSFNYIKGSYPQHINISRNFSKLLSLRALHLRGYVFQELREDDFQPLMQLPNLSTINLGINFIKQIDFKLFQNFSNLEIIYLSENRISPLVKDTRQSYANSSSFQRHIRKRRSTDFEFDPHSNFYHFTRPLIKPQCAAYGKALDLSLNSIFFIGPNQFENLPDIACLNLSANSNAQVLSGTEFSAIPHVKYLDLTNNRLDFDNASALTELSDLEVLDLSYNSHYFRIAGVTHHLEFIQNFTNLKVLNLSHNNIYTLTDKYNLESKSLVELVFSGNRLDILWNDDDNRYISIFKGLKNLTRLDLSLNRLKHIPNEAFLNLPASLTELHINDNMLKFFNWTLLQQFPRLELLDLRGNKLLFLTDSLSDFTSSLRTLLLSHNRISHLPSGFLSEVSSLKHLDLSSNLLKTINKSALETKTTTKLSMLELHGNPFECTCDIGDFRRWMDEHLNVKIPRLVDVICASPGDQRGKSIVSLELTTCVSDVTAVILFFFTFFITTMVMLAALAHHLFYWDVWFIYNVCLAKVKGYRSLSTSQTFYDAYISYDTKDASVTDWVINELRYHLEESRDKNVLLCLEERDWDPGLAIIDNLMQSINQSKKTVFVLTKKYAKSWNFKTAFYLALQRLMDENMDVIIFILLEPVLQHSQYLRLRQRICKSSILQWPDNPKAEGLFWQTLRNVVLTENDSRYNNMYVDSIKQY
Assay: HEK293-Blue-hTLR-8 cells assay
Format: cell-based
Conditions: HEK293-Blue-hTLR8 cells, SEAP reporter, R848 stimulation, 20 hrs
Excerpt: HEK293-Blue-hTLR-8 Cells Assay:
A stable HEK293-Blue-hTLR-8 cell line was purchased from InvivoGen (Cat. #: hkb-htlr8, San Diego, Calif., USA). These cells were originally designed for studying the stimulation of human TLR8 by monitoring the activation of NF-κB. A SEAP (secreted embryonic alkaline phosphatase) reporter gene was placed under the control of the IFN-β minimal promoter fused to five NF-κB and AP-1-binding sites. The SEAP was induced by activating NF-κB and AP-1 via stimulating HEK-Blue hTLR8 cells with TLR8 ligands. Therefore the reporter expression was declined by TLR8 antagonist under the stimulation of a ligand, such as R848, for incubation of 20 hrs. The cell culture supernatant SEAP reporter activity was determined using QUANTI-Blue™ kit (Cat. #: rep-qb1, Invivogen, San Diego, Ca, USA) at a wavelength of 640 nm, a detection medium that turns purple or blue in the presence of alkaline phosphatase.
HEK293-Blue-hTLR8 cells were incubated at a density of 250,000-450,000 cells/mL in a volume of 170 μL in a 96-well plate in Dulbecco's Modified Eagle's medium (DMEM) containing 4.5 g/L glucose, 50 U/mL penicillin, […], […], 2 mM L-glutamine, 10% (v/v) heat-inactivated fetal bovine serum with addition of 20 μL test compound in a serial dilution in the presence of final DMSO at 1% and 10 sL of 60 uM R848 in above DMEM, perform incubation under 37° C. in a CO2 incubator for 20 hrs. Then 20 μL of the supernatant from each well was incubated with 180 sL Quanti-blue substrate solution at 37° C. for 2 hrs and the absorbance was read at 620˜655 nm using a spectrophotometer. The signalling pathway that TLR8 activation leads to downstream NF-κB activation has been widely accepted, and therefore similar reporter assay was modified for evaluating TLR8 antagonist.

SMILES | IC50
O=C(NC1CC2CNCC(C2)C1)C1CN(c2ccc(C(F)(F)F)c3nccnc23)CC12CC2 (centres unmarked) [Example 15, N-(3-azabicyclo[3.3.1]nonan-7-yl)-5-[8-(trifluoromethyl)quinoxalin-5-yl]-5-azaspiro[2.4]heptane-7-carboxamide] | 156 nM
C[C@@H]1CN(c2ccc(C#N)c3ncccc23)C[C@H]1C(=O)NC1CCCNCC1 (single isomer, unassigned) [Example 52A, Trans-N-(azepan-4-yl)-1-(8-cyano-5-quinolyl)-4-methyl-pyrrolidine-3-carboxamide] | 225 nM
CN(C)CC1CC(NC(=O)C2CN(c3ccc(C(F)(F)F)c4nccnc34)CC23CC3)C1 (centres unmarked) [Example 26, N-[3-[(dimethylamino)methyl]cyclobutyl]-5-[8-(trifluoromethyl)quinoxalin-5-yl]-5-azaspiro[2.4]heptane-7-carboxamide] | 44 nM
N#Cc1ccc(N2C[C@@H](C(F)(F)F)[C@H](C(=O)N[C@H]3CNC[C@H]3F)C2)c2cccnc12 [Example 47, Trans-1-(8-cyano-5-quinolyl)-N-[(3S,4R)-4-fluoropyrrolidin-3-yl]-4-(trifluoromethyl)pyrrolidine-3-carboxamide] | 404 nM
O=C(NC1CC2COCC(C1)N2)C1CN(c2ccc(C(F)(F)F)c3nccnc23)CC12CC2 (centres unmarked) [Example 6, N-(3-oxa-9-azabicyclo[3.3.1]nonan-7-yl)-5-[8-(trifluoromethyl)quinoxalin-5-yl]-5-azaspiro[2.4]heptane-7-carboxamide] | 291 nM
N[C@H]1CC[C@@H](NC(=O)C2CN(c3ccc(C(F)(F)F)c4nccnc34)CC23CC3)CC1 (some centres unmarked) [Example 39, N-(4-Aminocyclohexyl)-5-[8-(trifluoromethyl)quinoxalin-5-yl]-5-azaspiro[2.4]heptane-7-carboxamide] | 447 nM
N#Cc1ccc(N2CC(C(=O)NC[C@@H]3CNCCO3)C3(CC3)C2)c2nccnc12 (single isomer, unassigned) [Example 71A] | 75 nM
CN1CCC(NC(=O)[C@@H]2CN(c3ccc(Cl)c4ncccc34)C[C@H]2C(F)(F)F)CC1 (relative stereo) [Example 46, Trans-1-(8-chloro-5-quinolyl)-N-(1-methyl-4-piperidyl)-4-(trifluoromethyl)pyrrolidine-3-carboxamide] | 51 nM
N#Cc1ccc(N2CC(C(=O)NC[C@@H]3CNCCO3)C3(CC3)C2)c2nccnc12 (single isomer, unassigned) [Example 71B] | 134 nM
C[C@@H]1CN(c2ccc(C#N)c3ncccc23)C[C@H]1C(=O)N1CCC2(CCNC2)C1 (relative stereo) [Example 53, Trans-5-[3-(2,7-diazaspiro[4.4]nonane-2-carbonyl)-4-methyl-pyrrolidin-1-yl]quinoline-8-carbonitrile] | 225 nM
CN1CCC(NC(=O)C2CN(c3ccc(C(F)(F)F)c4nccnc34)CC23CC3)CC1 (centres unmarked) [Example 11, N-(1-methyl-4-piperidyl)-5-[8-(trifluoromethyl)quinoxalin-5-yl]-5-azaspiro[2.4]heptane-7-carboxamide] | 30 nM
N#Cc1ccc(N2CC(C(=O)NC3CCCNCC3)C(C(F)(F)F)C2)c2cccnc12 (single isomer, unassigned) [Example 30B, N-(azepan-4-yl)-1-(8-cyano-5-quinolyl)-4-(trifluoromethyl)pyrrolidine-3-carboxamide] | 173 nM
O=C(NC1CC2CNCC2C1)C1CN(c2ccc(C(F)(F)F)c3nccnc23)CC12CC2 (centres unmarked) [Example 21, N-(1,2,3,3a,4,5,6,6a-octahydrocyclopenta[c]pyrrol-5-yl)-5-[8-(trifluoromethyl)quinoxalin-5-yl]-5-azaspiro[2.4]heptane-7-carboxamide] | 77 nM
C[C@@H]1CN(c2ccc(C#N)c3ncccc23)C[C@H]1C(=O)N[C@H]1CNC[C@H]1F [Example 56, Trans-1-(8-cyano-5-quinolyl)-N-[(3S,4R)-4-fluoropyrrolidin-3-yl]-4-methyl-pyrrolidine-3-carboxamide] | 373 nM
CN1CCC(NC(=O)[C@@H]2CN(c3ccc(C#N)c4ncccc34)C[C@H]2C(F)(F)F)CC1 (relative stereo) [Example 17, Trans-1-(8-cyano-5-quinolyl)-N-(1-methyl-4-piperidyl)-4-(trifluoromethyl)pyrrolidine-3-carboxamide] | 66 nM
C[C@H]1CN(c2ccc(Cl)c3ncccc23)C[C@@H]1C(=O)NC1CCN(C)CC1 [Example 50, (3R,4R)-1-(8-chloro-5-quinolyl)-4-methyl-N-(1-methyl-4-piperidyl)pyrrolidine-3-carboxamide] | 147 nM
N[C@@H]1CCC[C@H](NC(=O)C2CN(c3ccc(C(F)(F)F)c4nccnc34)CC23CC3)C1 (relative stereo) [Example 43, Cis-N-(3-aminocyclohexyl)-5-[8-(trifluoromethyl)quinoxalin-5-yl]-5-azaspiro[2.4]heptane-7-carboxamide] | 124 nM
Cc1ccc(N2C[C@H](C(=O)NC3CCN(C)CC3)[C@@H](C)C2)c2nccnc12 [Example 33, (3R,4R)-4-Methyl-N-(1-methyl-4-piperidyl)-1-(8-methylquinoxalin-5-yl)pyrrolidine-3-carboxamide] | 75 nM
CN1CCC(NC(=O)C2CN(c3ccc(C#N)c4nccnc34)CC23CC3)CC1 (single isomer, unassigned) [Example 7A, 5-(8-Cyanoquinoxalin-5-yl)-N-(1-methyl-4-piperidyl)-5-azaspiro[2.4]heptane-7-carboxamide] | 7 nM
CN1CCC(NC(=O)C2CN(c3ccc(C#N)c4ncccc34)CC2C(F)(F)F)CC1 (centres unmarked) [Example 18, 1-(8-Cyano-5-quinolyl)-N-(1-methyl-4-piperidyl)-4-(trifluoromethyl)pyrrolidine-3-carboxamide] | 75 nM
C[C@@H]1CN(c2ccc(C#N)c3ncccc23)C[C@H]1C(=O)NC1CCN(C)CC1 (relative stereo) [Example 28] | 52 nM
C[C@@H]1CN(c2ccc(C#N)c3ncccc23)C[C@H]1C(=O)N1CCC2(CCNCC2)CC1 (relative stereo) [Example 32, Trans-5-[3-(3,9-diazaspiro[5.5]undecane-3-carbonyl)-4-methyl-pyrrolidin-1-yl]quinoline-8-carbonitrile] | 213 nM
C[C@@H]1CN(c2ccc(C#N)c3ncccc23)C[C@H]1C(=O)NC1CCCNCC1 (single isomer, unassigned) [Example 52B, Trans-N-(azepan-4-yl)-1-(8-cyano-5-quinolyl)-4-methyl-pyrrolidine-3-carboxamide] | 274 nM
O=C(NC1CC2CCC(C1)N2)C1CN(c2ccc(C(F)(F)F)c3nccnc23)CC12CC2 (centres unmarked) [Example 23, N-(8-azabicyclo[3.2.1]octan-3-yl)-5-[8-(trifluoromethyl)quinoxalin-5-yl]-5-azaspiro[2.4]heptane-7-carboxamide] | 243 nM
CN1CCC(NC(=O)[C@H]2CN(c3ccc(C#N)c4ncccc34)C[C@@H]2C(F)(F)F)CC1 [Example 4, (3R,4R)-1-(8-cyano-5-quinolyl)-N-(1-methyl-4-piperidyl)-4-(trifluoromethyl)pyrrolidine-3-carboxamide] | 25 nM
N#Cc1ccc(N2CC(C(=O)NC[C@H]3CNCCO3)C3(CC3)C2)c2nccnc12 (single isomer, unassigned) [Example 70A] | 34 nM

From US20210323977A1, “PYRROLIDINYL AMIDE COMPOUNDS FOR THE TREATMENT OF AUTOIMMUNE DISEASE” (Hoffmann-La Roche Inc., priority 2018, published 2021)
